From patent publication US20260049077A1, “Neurotrophic Receptor Tyrosine Kinase (NTRK) Inhibitors and Methods Using Same” (Baylor College of Medicine, priority 2022, published 2026)
Like-named read-outs stand apart in the source and are kept apart here.

Columns and labels:
[1] = target: NTRK1 (Homo sapiens (Human), UniProt P04629); assay: NTRK1 inhibition (IC50)
[2] = target: NTRK2 (Homo sapiens (Human), UniProt Q16620); assay: NTRK2 inhibition (IC50); type: biochemical
[3] = target: NTRK3 (Homo sapiens (Human), UniProt Q16288); assay: NTRK3 inhibition (IC50); conditions: read-out: NTRK3 IC50
[4] = Metabolic stability in human liver microsomes (HLM)
[5] = Metabolic stability in mouse liver microsomes (MLM)

NTRK3, sequence (Q16288 32-839): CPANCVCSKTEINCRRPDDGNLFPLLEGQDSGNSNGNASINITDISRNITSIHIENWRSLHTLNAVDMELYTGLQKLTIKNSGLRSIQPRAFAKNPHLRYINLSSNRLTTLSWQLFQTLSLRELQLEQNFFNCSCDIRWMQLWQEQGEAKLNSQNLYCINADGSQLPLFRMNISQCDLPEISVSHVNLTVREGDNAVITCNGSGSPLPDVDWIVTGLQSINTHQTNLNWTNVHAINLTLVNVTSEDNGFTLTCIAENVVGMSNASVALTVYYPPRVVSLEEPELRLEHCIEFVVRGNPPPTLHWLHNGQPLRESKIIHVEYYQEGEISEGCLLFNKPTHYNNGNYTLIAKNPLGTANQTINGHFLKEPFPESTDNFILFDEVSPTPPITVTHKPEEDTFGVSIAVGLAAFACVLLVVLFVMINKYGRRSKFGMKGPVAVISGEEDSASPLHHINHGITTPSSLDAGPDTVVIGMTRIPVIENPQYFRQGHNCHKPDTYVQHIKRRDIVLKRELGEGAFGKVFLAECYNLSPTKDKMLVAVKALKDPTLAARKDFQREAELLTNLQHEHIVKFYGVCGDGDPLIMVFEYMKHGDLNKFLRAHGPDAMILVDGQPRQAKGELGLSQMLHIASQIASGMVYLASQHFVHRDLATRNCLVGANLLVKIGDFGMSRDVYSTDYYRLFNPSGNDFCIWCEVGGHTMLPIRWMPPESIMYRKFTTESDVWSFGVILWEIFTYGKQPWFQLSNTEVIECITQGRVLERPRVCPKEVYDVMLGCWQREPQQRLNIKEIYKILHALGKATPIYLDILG
NTRK2, sequence (Q16620 32-822): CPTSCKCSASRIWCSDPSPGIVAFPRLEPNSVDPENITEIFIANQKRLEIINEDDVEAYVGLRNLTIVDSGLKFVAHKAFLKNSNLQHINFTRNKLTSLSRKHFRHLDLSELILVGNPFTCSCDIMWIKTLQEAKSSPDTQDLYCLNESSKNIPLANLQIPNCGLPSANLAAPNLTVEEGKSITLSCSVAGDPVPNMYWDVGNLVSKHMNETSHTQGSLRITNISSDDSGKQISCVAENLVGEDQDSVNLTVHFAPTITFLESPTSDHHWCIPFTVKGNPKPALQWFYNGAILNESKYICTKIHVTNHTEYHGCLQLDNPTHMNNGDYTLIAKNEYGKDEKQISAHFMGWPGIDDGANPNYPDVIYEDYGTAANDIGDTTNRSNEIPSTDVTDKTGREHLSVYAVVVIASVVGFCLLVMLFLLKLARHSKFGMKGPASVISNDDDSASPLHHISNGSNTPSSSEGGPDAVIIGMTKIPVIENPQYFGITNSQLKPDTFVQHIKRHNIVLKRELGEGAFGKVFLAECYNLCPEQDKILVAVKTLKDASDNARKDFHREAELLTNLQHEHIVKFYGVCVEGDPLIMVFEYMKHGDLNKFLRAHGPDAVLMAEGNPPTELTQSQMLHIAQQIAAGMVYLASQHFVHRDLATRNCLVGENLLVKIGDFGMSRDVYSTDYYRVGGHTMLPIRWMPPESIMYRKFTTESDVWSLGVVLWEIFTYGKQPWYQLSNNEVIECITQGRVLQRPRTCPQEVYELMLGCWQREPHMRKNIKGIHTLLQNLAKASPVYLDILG
NTRK1, sequence (P04629 33-796): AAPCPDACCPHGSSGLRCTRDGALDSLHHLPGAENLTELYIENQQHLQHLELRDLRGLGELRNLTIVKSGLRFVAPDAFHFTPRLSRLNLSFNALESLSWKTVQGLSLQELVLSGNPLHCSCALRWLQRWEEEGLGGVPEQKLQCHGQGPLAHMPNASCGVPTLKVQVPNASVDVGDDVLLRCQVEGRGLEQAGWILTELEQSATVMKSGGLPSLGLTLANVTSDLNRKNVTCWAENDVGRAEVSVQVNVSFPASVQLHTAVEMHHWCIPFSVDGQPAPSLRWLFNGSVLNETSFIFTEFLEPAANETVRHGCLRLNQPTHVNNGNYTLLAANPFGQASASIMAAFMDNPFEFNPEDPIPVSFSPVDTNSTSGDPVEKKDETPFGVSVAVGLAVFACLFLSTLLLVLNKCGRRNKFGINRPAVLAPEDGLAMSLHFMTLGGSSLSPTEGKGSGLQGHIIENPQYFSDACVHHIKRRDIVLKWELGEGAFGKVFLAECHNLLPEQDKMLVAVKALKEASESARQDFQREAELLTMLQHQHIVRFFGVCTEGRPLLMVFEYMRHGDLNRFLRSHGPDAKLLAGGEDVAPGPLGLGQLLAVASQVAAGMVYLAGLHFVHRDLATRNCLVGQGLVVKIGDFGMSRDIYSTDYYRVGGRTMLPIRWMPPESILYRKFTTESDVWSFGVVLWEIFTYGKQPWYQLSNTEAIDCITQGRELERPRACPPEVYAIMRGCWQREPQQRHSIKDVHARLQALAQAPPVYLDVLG

Compound | IC50 ([1]; read-out: NTRK1 IC50) | IC50 [2] | IC50 [3] | further results
NC(=O)c1cnn2ccc(CNC(=O)Nc3ccc(OC(F)(F)F)cc3)cc12 [CDD-3130, 5-((3-(4-(trifluoromethoxy)phenyl)ureido)methyl)pyrazolo[1,5-a]pyridine-3-carboxamide] | 9.2 µM | 1.27 µM | – | –
CC(C)N(Cc1ccc2[nH]ccc2c1)C(=O)Nc1ccc(OC(F)(F)F)cc1 [CDD-3265, 1-((1H-indol-5-yl)methyl)-1-isopropyl-3-(4-(trifluoromethoxy)phenyl)urea] | 50.1 µM | 53.7 µM | 55.1 µM | –
O=C(Nc1cccc(C(F)(F)F)c1)N(Cc1ccn2nccc2c1)C1CCC1 [CDD-2273, 1-cyclobutyl-1-(pyrazolo[1,5-a]pyridin-5-ylmethyl)-3-(3-(trifluoromethyl)phenyl)urea] | – | 1.32 µM | – | half-life [4]: 15.5 min; half-life [5]: 8.2 min
CN(Cc1ccn2ncc(C(N)=O)c2c1)C(=O)COc1ccc(C(F)(F)F)cc1 [CDD-3181, 5-((N-methyl-2-(4-(trifluoromethyl)phenoxy)acetamido)methyl)pyrazolo[1,5-a]pyridine-3-carboxamide] | 6.72 µM | 1.06 µM | – | –
CN(Cc1ccn2ncc(C(N)=O)c2c1)C(=O)CN(C)c1ccc(C(C)(C)C)cc1 [CDD-3185, 5-((2-((4-(tert-butyl)phenyl)(methyl)amino)-N-methylacetamido)methyl)pyrazolo[1,5-a]pyridine-3-carboxamide] | 10.9 µM | 1.75 µM | – | –
O=C(Nc1ccc(OC(F)(F)F)cc1)N(Cc1ccn2nccc2c1)C1CCCCC1 [CDD-2298, 1-cyclohexyl-1-(pyrazolo[1,5-a]pyridin-5-ylmethyl)-3-(4-(trifluoromethoxy)phenyl)urea] | – | 0.099 µM | – | –
CC[C@@H](C)N(Cc1ccn2ncc(C(N)=O)c2c1)C(=O)Nc1ccc(OC(F)(F)F)cc1 [CDD-3057, (R)-5-((1-(sec-butyl)-3-(4-(trifluoromethoxy)phenyl)ureido)methyl)pyrazolo[1,5-a]pyridine-3-carboxamide] | 0.0176 µM | 0.004 µM | 0.0066 µM | –
CNC(=O)[C@@H](Cc1ccc([N+](=O)[O-])cc1)NC(=O)Nc1ccc(Oc2ccccc2)cc1 [CDD-3100, (R)-N-methyl-3-(4-nitrophenyl)-2-(3-(4-phenoxyphenyl)ureido)propanamide] | 26.3 µM | 37.2 µM | – | –
CC(C)c1ccc(OCC(=O)N(C)Cc2ccn3ncc(C(N)=O)c3c2)cc1 [CDD-3120, 5-((2-(4-isopropylphenoxy)-N-methylacetamido)methyl)pyrazolo[1,5-a]pyridine-3-carboxamide] | 1.78 µM | 0.242 µM | – | –
CN(Cc1ccn2ncc(C(N)=O)c2c1)S(=O)(=O)Nc1ccc(OC(F)(F)F)cc1 [CDD-3308, 5-((methyl(N-(4-(trifluoromethoxy)phenyl)sulfamoyl)amino)methyl)pyrazolo[1,5-a]pyridine-3-carboxamide] | 28.4 µM | 4.45 µM | 4.32 µM | –
CN(Cc1ccn2ncc(C(N)=O)c2c1)C(=O)COc1ccc(C(C)(C)C)cc1 [CDD-3183, 5-((2-(4-(tert-butyl)phenoxy)-N-methylacetamido)methyl)pyrazolo[1,5-a]pyridine-3-carboxamide] | 3.61 µM | 0.247 µM | – | –
O=C(Nc1ccc([N+](=O)[O-])cc1)N(Cc1ccn2nccc2c1)C1CCC1 [CDD-2297, 1-cyclobutyl-3-(4-nitrophenyl)-1-(pyrazolo[1,5-a]pyridin-5-ylmethyl)urea] | – | > 10 µM | – | –
O=C(Nc1ccc(OC(F)(F)F)cc1)N(Cc1ccn2nccc2c1)C1CCCCCC1 [CDD-2301, 1-cycloheptyl-1-(pyrazolo[1,5-a]pyridin-5-ylmethyl)-3-(4-(trifluoromethoxy)phenyl)urea] | – | 0.513 µM | – | –
Cc1nnc2n1-c1ccc(Cl)cc1C(c1ccccc1)=NC2 [Alprazolam] | – | – | – | half-life [4]: 731 min; half-life [5]: 350 min
CN(Cc1ccn2ncc(C(N)=O)c2c1)C(=O)CCc1ccc(OC(F)(F)F)cc1 [CDD-3121, 5-((N-methyl-3-(4-(trifluoromethoxy)phenyl)propanamido)methyl)pyrazolo[1,5-a]pyridine-3-carboxamide] | 11.6 µM | 3.24 µM | – | –
CC(C)c1ccc(OCC(=O)NCc2ccn3ncc(C(N)=O)c3c2)cc1 [CDD-3129, 5-((2-(4-isopropylphenoxy)acetamido)methyl)pyrazolo[1,5-a]pyridine-3-carboxamide] | 9.54 µM | 3.77 µM | – | –
O=C(O)c1cnn2ccc(CN(C(=O)Nc3ccc(OC(F)(F)F)cc3)C3CC3)cc12 [CDD-2736, 5-((1-cyclopropyl-3-(4-(trifluoromethoxy)phenyl)ureido)methyl)pyrazolo[1,5-a]pyridine-3-carboxylic acid] | 0.0041 µM | 0.0025 µM | 0.0033 µM | –

Compound | IC50 ([1]; read-out: NTRK1 IC50) | IC50 [2] | IC50 [3] | further results
CC(C)N(Cc1ccn2ncc(Br)c2c1)C(=O)Nc1ccc(OC(F)(F)F)cc1 [CDD-2735, 1-((3-bromopyrazolo[1,5-a]pyridin-5-yl)methyl)-1-isopropyl-3-(4-(trifluoromethoxy)phenyl)urea] | 0.0043 µM | 0.0036 µM | 0.0044 µM | –
O=C(Nc1ccccc1OC(F)(F)F)N(Cc1ccn2nccc2c1)C1CCC1 [CDD-2300, 1-cyclobutyl-1-(pyrazolo[1,5-a]pyridin-5-ylmethyl)-3-(2-(trifluoromethoxy)phenyl)urea] | – | > 10 µM | – | –
CC(C)N(Cc1ccc2[nH]ccc2c1)C(=O)COc1ccc(OC(F)(F)F)cc1 [CDD-3264, N-((1H-indol-5-yl)methyl)-N-isopropyl-2-(4-(trifluoromethoxy)phenoxy)acetamide] | 43.9 µM | 2.09 µM | 21.8 µM | –
O=C(Nc1ccc(OC(F)(F)F)cc1)N(Cc1ccn2nccc2c1)C1CCCC1 [CDD-2276, 1-cyclopentyl-1-(pyrazolo[1,5-a]pyridin-5-ylmethyl)-3-(4-(trifluoromethoxy)phenyl)urea] | – | 0.019 µM | – | half-life [4]: 14 min; half-life [5]: 35 min
CC(C)N(Cc1ccn2nccc2c1)C(=O)CNc1ccc(C2(C(F)(F)F)CC2)cc1 [CDD-3307, N-isopropyl-N-(pyrazolo[1,5-a]pyridin-5-ylmethyl)-2-((4-(1-(trifluoromethyl)cyclopropyl)phenyl)amino)acetamide] | 2.17 µM | 0.414 µM | 0.922 µM | –
CC(C)N(Cc1ccn2ncc(F)c2c1)C(=O)Nc1ccc(OC(F)(F)F)cc1 [CDD-2734, 1-((3-fluoropyrazolo[1,5-a]pyridin-5-yl)methyl)-1-isopropyl-3-(4-(trifluoromethoxy)phenyl)urea] | 0.036 µM | 0.0053 µM | – | half-life [4]: 58 min; half-life [5]: 21 min
C[C@H]1CNC(=O)c2cnn3ccc(nc23)N[C@H](C)c2cc(F)ccc2O1 [Reprotrectinib, (3R,11S)-6-fluoro-3,11-dimethyl-10-oxa-2,13,17,18,21-pentazatetracyclo[13.5.2.04,9.018,22]docosa-1(21),4(9),5,7,15(22).16,19-heptaen-14-one, reference compound] | – | – | – | HLM t1/2 [4]: 254 min; MLM t1/2 [5]: 167 min
CN(C)C(=O)[C@H](Cc1cccc([N+](=O)[O-])c1)NC(=O)Nc1c(Cl)cccc1C(F)(F)F [CDD-3099, (S)-2-(3-(2-chloro-6-(trifluoromethyl)phenyl)ureido)-N,N-dimethyl-3-(3-nitrophenyl)propanamide] | – | 47.4 µM | – | IC50 [1]: 39.6 µM
O=C(Nc1ccc(OC(F)(F)F)cc1)N(Cc1ccn2nccc2c1)C1CC1 [CDD-2275, 1-cyclopropyl-1-(pyrazolo[1,5-a]pyridin-5-ylmethyl)-3-(4-(trifluoromethoxy)phenyl)urea] | – | 0.046 µM | – | half-life [4]: 90 min; half-life [5]: 56 min
CN(Cc1ccn2ncc(C(N)=O)c2c1)C(=O)COc1cccc(OC(F)(F)F)c1 [CDD-3182, 5-((N-methyl-2-(3-(trifluoromethoxy)phenoxy)acetamido)methyl)pyrazolo[1,5-a]pyridine-3-carboxamide] | 4.06 µM | 0.354 µM | – | –
C[C@@H]1CCc2ncc(F)cc2[C@H]2CCCN2c2ccn3ncc(c3n2)C(=O)N1 [Selitrectinib, (6R,15R)-9-fluoro-15-methyl-2,11,16,20,21,24-hexazapentacyclo[16.5.2.02,6.07,12.021,25]pentacosa-1(24),7(12),8,10,18(25),19,22-heptaen-17-one, reference compound] | – | – | – | half-life [4]: 244 min; half-life [5]: 32 min
CCC(C)N(Cc1ccn2ncc(C(=O)O)c2c1)C(=O)Nc1ccc(OC(F)(F)F)cc1 (centres unmarked) [CDD-2743, 5-((1-(sec-butyl)-3-(4-(trifluoromethoxy)phenyl)ureido)methyl)pyrazolo[1,5-a]pyridine-3-carboxylic acid] | 0.0095 µM | 0.006 µM | 0.0054 µM | –
O=C(Nc1ccc(OC(F)(F)F)cc1)N(Cc1ccn2nccc2c1)c1ccccc1 [CDD-2296, 1-phenyl-1-(pyrazolo[1,5-a]pyridin-5-ylmethyl)-3-(4-(trifluoromethoxy)phenyl)urea] | – | 0.335 µM | – | –
CC(C)N(Cc1ccn2nccc2c1)C(=O)CNc1ccc(C(C)(C)C)nc1 [CDD-3306, 2-((6-(tert-butyl)pyridin-3-yl)amino)-N-isopropyl-N-(pyrazolo[1,5-a]pyridin-5-ylmethyl)acetamide] | 2.41 µM | 1.13 µM | 4.77 µM | –
CC(C)CN(Cc1ccn2ncc(C(=O)O)c2c1)C(=O)Nc1ccc(OC(F)(F)F)cc1 [CDD-2742, 5-((1-isobutyl-3-(4-(trifluoromethoxy)phenyl)ureido)methyl)pyrazolo[1,5-a]pyridine-3-carboxylic acid] | 0.104 µM | 0.0057 µM | 0.0118 µM | –
CC[C@H](C)N(Cc1ccn2ncc(C(N)=O)c2c1)C(=O)Nc1ccc(OC(F)(F)F)cc1 [CDD-3058, (S)-5-((1-(sec-butyl)-3-(4-(trifluoromethoxy)phenyl)ureido)methyl)pyrazolo[1,5-a]pyridine-3-carboxamide] | 0.0117 µM | 0.0037 µM | 0.0084 µM | –
